We go through five compounds from patent publication US6794509B1, “Compounds for fluorescence labeling” (Fuji Photo Film Co., Ltd., priority 1999, dated 2004).

Data set [1] can be described thus: Comparison of relative fluorescence quantum yield (absorption and fluorescence spectra of dye solutions). In kind it is physicochemical. The note with it: for Absorption maximum (nm) / Fluorescence maximum (nm): ethanol solution of dye; for Fluorescence maximum (nm) / Relative fluorescence quantum yield: absorbance 0.1 at 620 nm; for Fluorescence maximum (nm): spectrum measured at 620 nm; for Relative fluorescence quantum yield: ethanol solution, area of fluorescence spectrum relative to Crystal Violet (Φf=0.54). Here is the method:
Measurement and calculation of relative quantum yield were performed according to the method described in Journal of Chemical Society, Faraday Trans., 92, 4917-4925 (1996). The structures of the conventional cyanine dye used as comparative dyes are shown below.
(2) Fluorescence spectrum was measured at an […] wavelength of 620 nm.
(3) Area value of fluorescence spectrum was calculated.
(4) Relative value was calculated based on the area value of Crystal Violet of which absolute fluorescence quantum yield was known (Φf=0.54).

The conditions of data set [2]: known value of the standard; cited from earlier work.

On to `CC1(C)C2=CC(C#Cc3cccc(N(CCCS(=O)(=O)[O-])S(C)(=O)=O)c3)=CN(CCCCCC(=O)O)C2=N/C1=C\C=C\C1=Nc2c(cc(C#Cc3cccc(N(CCCS(=O)(=O)[O-])S(C)(=O)=O)c3)c[n+]2CCCS(=O)(=O)[O-])C1(C)C.[K+].[K+]` [Compound I-12], for which, in data set [1], the “Absorption maximum (nm)” value is 650 nm, the “Fluorescence maximum (nm)” value is recorded as 671 nm and the “Relative fluorescence quantum yield” value was found to be 0.62.

Take `CN(C)c1ccc(C(=C2C=CC(=[N+](C)C)C=C2)c2ccc(N(C)C)cc2)cc1` [Crystal Violet]: the “absolute fluorescence quantum yield (Φf)” value in data set [2] is given as 0.54.

With `CC(CCN1C=C(C#Cc2ccc(N(CCCS(=O)(=O)[O-])S(C)(=O)=O)cc2)C=C2C1=N/C(=C\C=C\C1=Nc3c(cc(C#Cc4ccc(N(CCCCCC(=O)O)S(C)(=O)=O)cc4)c[n+]3CCC(C)S(=O)(=O)[O-])C1(C)C)C2(C)C)S(=O)(=O)[O-].[K+].[K+]` (stereo not shown) [Compound I-13], in data set [1], the “Absorption maximum (nm)” value was 651 nm, the “Fluorescence maximum (nm)” value is reported as 672 nm and the “Relative fluorescence quantum yield” value is listed as 0.63.

As to `CC(CC[n+]1cc(C#Cc2ccc(N(CCCS(=O)(=O)[O-])S(C)(=O)=O)cc2)cc2c1N=C(/C=C/C=C1\N=C3C(=CC(C#Cc4ccc(N(CCCS(=O)(=O)[O-])S(C)(=O)=O)cc4)=CN3CCCCCC(=O)O)C1(C)C)C2(C)C)S(=O)(=O)[O-].[K+].[K+]` (stereo not shown) [Compound I-11], in data set [1], the “Absorption maximum (nm)” value is recorded as 651 nm, the “Fluorescence maximum (nm)” value is on record as 672 nm and the “Relative fluorescence quantum yield” value is given as 0.63.

As for `CC[N+]1=C(/C=C/C=C/C=C2/N(CCCCCC(=O)O)c3ccc(S(=O)(=O)[O-])cc3C2(C)C)C(C)(C)c2cc(S(=O)(=O)[O-])ccc21.[K+]` [compound 2, reference compound], in data set [1], the “Absorption maximum (nm)” value was 645 nm, the “Fluorescence maximum (nm)” value is 664 nm and the “Relative fluorescence quantum yield” value turned out to be 0.27.
